Key:
[1] = Spectral scans of peroxynitrite-oxidized Mn porphyrins and re-reduction of Mn(IV); assay type: biochemical
Description: The peaks at 428 nm (left arrows) are due to Mn(IV)=O (15) whereas the 464 nm peaks (right arrows) are due to Mn(III). […] INSET: The indicated amounts of peroxynitrite were added to solutions of MnTBAP (10 μM) in phosphate buffer and the decrease in 464 nm absorbance was monitored at a data collection rate of 10 points/s. The maximal change in 464 nm absorbance associated with oxidation of Mn(III) to Mn(IV), which occurred in >1 s, was plotted versus peroxynitrite; the concentration at which no further absorbance change occurred was used to establish the reaction stoichiometry.

[2] = 100 μM DCDHF, pH 7.4, 37° C.
Description: A 14.5 mM stock solution of 2,7-dichlorodihydrofluorescein was prepared as described (24). Reaction solutions were prepared in rapidly stirred glass cuvettes and contained 100 μM of DCDHF and 2 μM of the indicated MP in 1.4 ml of 0.1 M potassium phosphate, pH 7.4 at 37° C. Peroxynitrite was added sequentially to rapidly stirred cuvettes; three seperate additions of 2 μM peroxynitrite were made followed by three seperate additions of 4 μM each (see Inset). DCDHF oxidation to dichlorofluorescein (DCF) was monitored at 500 nm (59,500 M^−1cm^−1) (24). Oxidative efficiency was defined as the moles of DCF formed per mole of peroxynitrite added and was determined for each peroxynitrite addition. The values shown represent the average of all six additions.
Dichlorodihydrofluorescein (DCDHF) undergoes a two-electron oxidation to yield the highly absorbing (and fluorescent) product dichlorofluorescein (DCF). DCDHF has been shown previously to be oxidized at an efficiency as high as 38% of added peroxynitrite (24) and was used here as an indicator to detect any changes in the total oxidative yield of peroxynitrite caused by metalloporphyrins.

[3] = MP 5 μM, GSH 2 mM, 0.1 M potassium phosphate pH 7.4, 37° C.
Description: Aliquots (14 μl) were removed at 10 min intervals and added to 1.4 of 0.1 M potassium phosphate, pH 7.4 containing 0.2 mM dithionitrobenzoic acid (Ellman's Reagent) and 50 μM EDTA. GSH concentration was determined by the change in 430 nm absorbance. The extinction coefficient at 430 nm was determined to be 13,900 M^−1cm^−1 using a fresh GSH solution standardized by weight.
In order to test the hypothesis that Mn(II)- or Fe(II)-porphyrins would be capable of carrying out two-electron reductions of peroxynitrite and thereby decreasing rather than increasing its reactivity, attempts were made to pre-reduce these transition metal-containing MPs prior to addition of peroxynitrite.

[4] = MP-catalyzed nitration of HPA: effect of pH, reductants and serum; assay type: biochemical
isolated hearts = assay: Isolated hearts, ischemia and reperfusion
[5] = Solubility and passage of membranes (statement); assay type: physicochemical

Compound | time to complete re-reduction to Mn(III) ([1]; 10 μM MP, peroxynitrite 20 μM alone) | time to complete re-reduction to Mn(III) ([1]; 50 μM H2O2 added before peroxynitrite) | time to complete re-reduction to Mn(III) ([1]; 50 μM nitrate added before peroxynitrite) | time to complete re-reduction to Mn(III) ([1]; 50 μM nitrite added before peroxynitrite) | time to complete re-reduction to Mn(III) ([1]; H2O2 and nitrate or H2O2 and nitrite added together) | increase of total oxidant yield from peroxynitrite [2] | oxidant yield, of added peroxynitrite [2] | rate of GSH oxidation [3] | enhancement of nitration yield at pH 9.1 ([4]; 8 mM HPA, 10 μM MP, 0.1 M sodium borate pH 9.1, versus non-catalyzed) | effect of ascorbate and GSH on nitration enhancement ([4]; concentrations which eliminated non-catalyzed nitration) | ascorbate concentration giving complete inhibition of nitration enhancement ([4]; dose-dependent, not shown) | effect of serum on nitration enhancement ([4]; fresh human serum 1:10 added prior to peroxynitrite) | protection of isolated hearts (isolated hearts) | passage of cell membranes and the blood-brain-barrier [5] | water solubility [5]
C[n+]1ccc(-c2c3nc(c(-c4cc[n+](C)cc4)c4ccc([n-]4)c(-c4cc[n+](C)cc4)c4nc(c(-c5cc[n+](C)cc5)c5ccc2[n-]5)C=C4)C=C3)cc1.[Cl-].[Cl-].[Cl-].[Cl-].[Cl-].[Mn+3] [MnTMPyP, Manganese (III) meso-tetra-(N-methyl-4-pyridyl)-porphine chloride] | 30 s | 17 s | 74 s | 30 s | 17 s | 2.2 fold | 83% | 22 µM/min | 12.3 fold | much less inhibitory effect | 1.5 mM | much less effect |  |  | 
O=C(O)c1ccc(-c2c3nc(c(-c4ccc(C(=O)O)cc4)c4ccc([n-]4)c(-c4ccc(C(=O)O)cc4)c4nc(c(-c5ccc(C(=O)O)cc5)c5ccc2[n-]5)C=C4)C=C3)cc1.[Fe+2] [FeTCPP, Iron (III) meso 5,10,15,20-tetrakis-(4-carboxy-phenyl) porphyrin] |  |  |  |  |  |  |  |  |  |  |  |  | protects isolated hearts from the injurious effects of ischemia and reperfusion | readily cross cell membranes and the blood-brain-barrier | very water soluble

Reference: patent US6372727B1, “Metalloporphyrin treatment of neurologic disease” (UAB Research Foundation, priority 1999, dated 2002)
